Converted amounts (≈) assume the structure as drawn. Like-named read-outs stand apart in the source and are kept apart here. Where a SMILES comes first, the peptide text is derived from it. Where no end group is shown, it is not given here.
What was measured:
[1] = physchem; format: physicochemical
Method: The tests were carried out in three of the most common solvents used in biological applications such as: ultrapure water; DPBS (Dulbecco's Phosphate Buffered Saline), i.e., a saline buffer containing potassium chloride (KCl), monobasic potassium phosphate (KH2PO4), sodium chloride (NaCl) and dibasic sodium phosphate (Na2HPO4-7H2O) and finally in an organic solvent such as dimethylsulfoxide (DMSO).

[2] = system: S. aureus; format: cell-based, Staphylococcus aureus
Method: (§1) The evaluation of the Minimum Bactericidal Concentration (MBC), i.e., the lowest concentration of antimicrobial agent capable of 99.9% inhibition of bacterial growth on plates, was carried out as described in Bílikova et al, (2015, Peptides 68:190-196). […] It should be noted that the peptide object of the present invention is more powerful and efficient than the peptide IDR-1018-K6 (described in patent application WO2019012158) against the pathogenic bacteria L. monocytogenes and S. typhimurium, with bactericidal concentration values 4-fold and 7-fold lower, respectively, compared to those shown by IDR-1018-K6.

[3] = system: S. typhimurium; format: cell-based, Salmonella typhimurium
Method: as §1

[4] = system: Candida albicans (ATCC 14053); experiment: activity against yeast, plate count, MFC; format: cell-based; conditions: C. albicans
Method: The inhibitory activity of the RiLK1 peptide was determined against the yeast Candida albicans. A stock culture was prepared in which 10^5 CFUs of C. albicans were inoculated in 10 ml of buffered peptone water. A reference strain (ATCC 14053) was used for this species. The culture was incubated for 6 h at 37° C. with the RiLK1 peptide at 25 μM concentrations. At the same time, control samples were incubated without adding the peptide. 100 μl of the samples thus prepared were seeded on DG18 plates (Dichloran 18% Glycerol Agar-ISO 21527-2) and incubated at 25° C. for 7 days. All experimental conditions investigated used the plate count method to estimate the antimycotic activity of the peptide. Specifically, the numbers of colonies grown on agar plates seeded with the cultures in the absence or presence of the individual peptide dilutions were counted and compared. The standard deviations of the triplicate incubations of each plate were determined using statistical software. The evaluation of the Minimum Fungicidal Concentration (MFC), i.e., the lowest concentration of antifungal agent capable of 99.9% inhibition of fungal growth on plates, was carried out as described in Bílikova et al, (2015, Peptides 68:190-196).

[5] = format: physicochemical
Method: The structural and conformational characterization of the RiLK1 peptide was assessed by investigating its secondary structure by ^1H NMR spectroscopy in H2O and in a micellar solution of SDS at a concentration of 150 mM to mimic the condition of the bacterial cell membrane.
In fact, the representative structures of the RiLK1 peptide in water show a random orientation of both polar and hydrophobic amino acid side chains.
The helical structure appears well defined and stabilized by hydrophobic interactions of amino acid residues located on the opposite face. It is important to note that, in this arrangement, all the charged side chains are iso-oriented and well prone to interact with the negatively charged surface of the SDS micelles. Furthermore, the two tryptophan residues within the RiLK1 sequence are located at an optimal distance for their mutual stacking, thus contributing to the stabilization of the helix. It should be pointed out that the ^1H NMR spectra of the peptide IDR-1018-K6 (described in patent application WO2019012158) could not be acquired in the presence of micellar solutions of SDS since it is not soluble at the concentrations required to carry out these assays. […] Therefore, it is possible to assert that the NMR analysis in the presence of SDS has shown that the RiLK1 peptide of the present invention is capable of adopting the helix conformation, whereas the IDR-1018-K6 peptide (object of patent WO2019012158) has poor solubility and a heterogeneous system not suitable for NMR structural characterization (Table 2).

[6] = system: E. coli; format: cell-based, Escherichia coli
Method: as §1

[7] = system: L. monocytogenes (LM2); format: cell-based, Listeria monocytogenes; conditions: LM2
Method: as §1

[8] = system: Aspergillus brasiliensis (ATCC 9341); experiment: antifungal activity, plate count, MFC; format: cell-based; conditions: A. brasiliensis
Method: The antifungal activity of the RiLK1 peptide was determined against Aspergillus brasiliensis. For this purpose, a stock culture was prepared in which 10^5 CFUs of A. brasiliensis were inoculated in 10 ml of buffered peptone water. A reference strain (ATCC 9341) was used for this fungal species. The culture was incubated for 6 h at 37° C. with the RiLK1 peptide at 25 μM concentrations. At the same time, control samples were incubated without adding the peptide. 100 μl of the samples thus prepared were seeded on DG18 plates (Dichloran 18% Glycerol Agar-ISO 21527-2) and incubated at 25° C. for 7 days. All experimental conditions investigated used the plate count method to estimate the fungicidal activity of the peptide. Specifically, the numbers of colonies grown on agar plates seeded with the fungal suspensions in the absence or presence of the individual peptide dilutions were counted and compared. The standard deviations of the triplicate incubations of each plate were determined using statistical software. The evaluation of the Minimum Fungicidal Concentration (MFC), i.e., the lowest concentration of antifungal agent capable of 99.9% inhibition of fungal growth on plates, was carried out as described in Bílikova et al, (2015, Peptides 68:190-196).

| Compound | Solubility limit [1] | solubility ([1]; Solubility limit) | Outcome ([1]; pH 7.1) | Outcome [1] | solubility ([1]; pH 7.1, Solubility limit) | other results |
| --- | --- | --- | --- | --- | --- | --- |
| CC[C@@H](C)[C@@H](NC(=O)[C@@H](CCCNC(=N)N)NC(=O)[C@H](NC(=O)[C@@H](CCCCN)NC(=O)[C@H](NC(=O)[C@H](NC(=O)[C@@H](CC(C)C)NC(=O)[C@@H](CCCNC(=N)N)NC(=O)[C@H](N)C(C)C)[C@H](C)CC)C(C)C)C(C)C)C(=O)N[C@H](Cc1c[nH]c2ccccc12)C(=O)N[C@H](CCCNC(=N)N)C(=O)N[C@H](CCCNC(=N)N)C(N)=O [IDR-1018-K6 (D)] (HELM PEPTIDE1{[dV].[dR].[dL].[dI].[dV].[dK].[dV].[dR].[dI].[dW].[dR].[dR].[am]}$$$$V2.0; N-terminus and C-terminus assumed) | 0 µg/mL | 10000 µg/mL (≈ 6.28 mM) | NOT dissolved |  |  | Solubility limit ([1]; pH 7.1): 0 µg/mL |
| CC[C@@H](C)[C@@H](NC(=O)[C@@H](CCCNC(=N)N)NC(=O)[C@H](NC(=O)[C@@H](Cc1c[nH]c2ccccc12)NC(=O)[C@@H](CCCCN)NC(=O)[C@@H](CC(C)C)NC(=O)[C@H](N)CCCNC(=N)N)C(C)C)C(=O)N[C@H](Cc1c[nH]c2ccccc12)C(=O)N[C@H](CCCNC(=N)N)C(=O)N[C@H](CCCNC(=N)N)C(N)=O [RiLK1(D), RLKWVRIWRR] (HELM PEPTIDE1{[dR].[dL].[dK].[dW].[dV].[dR].[dI].[dW].[dR].[dR].[am]}$$$$V2.0; N-terminus assumed) | 10000 µg/mL (≈ 6.81 mM) | 10000 µg/mL (≈ 6.81 mM) | Dissolved | Dissolved | 10000 µg/mL (≈ 6.81 mM) |  |
| RLKWVRIWRR-NH2 [RiLK1(L), RLKWVRIWRR] | 10000 µg/mL | 10000 µg/mL | Dissolved | Dissolved | 10000 µg/mL |  |
| VRLIVKVRIWRR-NH2 (C-terminus assumed) [IDR-1018-K6(L)] | 10000 µg/mL | 5000 µg/mL | Dissolved | Dissolved | 5000 µg/mL |  |
| VRLIVKVRIWRR-NH2 (C-terminus assumed) [IDR-1018-K6] |  | ≤ 5000 µg/mL |  |  |  | MBC [2]: 15 µM; MBC [3]: 25 µM; Drop Log CFU/ml ([4]; 25 μM, 6 h): 1.0 Log CFU/ml; post-treatment decrease in the fungal load ([4]; 25 μM, 6 h): 1.0 Log; antimycotic activity in words ([4]; same experimental conditions): low efficiency; solubility [5]: 1000 µM; peptide concentration in NMR sample (solubility) ([5]; pH 4.4): insoluble; MBC [6]: 2 µM; solubility [1]: totally insoluble; MBC [7]: 8 µM; Drop Log CFU/ml ([8]; 25 μM, 6 h): 0 Log CFU/ml; post-treatment decrease in the fungal load ([8]; 25 μM, 6 h): 0 Log; antifungal activity in words ([8]; same experimental conditions): not active |

From patent US20260234187A1, “ANTIMICROBIAL PEPTIDES” (MATERIAS S.R.L., priority 2020, published 2026)
